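Tested at 5 concentrations; 48 h exposure; 96-well plates; endpoints linearly interpolated, else capped at highest concentration. At the GI50, growth is halved.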 Activity calls are given as the source filed them. Cut-off read from the data, not from the text of the source: active = GI50 up to about 1.1 µM and inactive = higher. Where only a bound is given, the exact number is not on record here.

Nine compounds from ChEMBL document CHEMBL1201862, “PubChem BioAssay data set” (2004) can be followed below.

Assay in all cases: growth of human tumour cells (NCI), 48 h
Assay [1] has as its system 786-0.
Assay [2] relates to A549.
In assay [3] the test system is CAKI-1.
In assay [4] the test system is COLO 205.
In assay [5] the test system is EKVX.
The subject of assay [6] is HL-60.
In assay [7] the test system is IGROV-1.
For assay [8], the system named is K562.
The subject of assay [9] is M14.
The subject of assay [10] is NCI-H23.
Assay [11] concerns NCI/ADR-RES.
In assay [12] the test system is OVCAR-4.
Assay [13] concerns OVCAR-8.
The subject of assay [14] is SK-MEL-2.
The test system of assay [15] is SK-MEL-5.
Assay [16] concerns SNB-75.
In assay [17] the test system is SW-620.
Assay [18] deals with UO-31.
Assay [19] concerns LOX IMVI.

For the compound `Cc1sc(N)c(S(=O)(=O)c2ccccc2)c1C`, the GI50 in assay [1], in [2], in assay [3], in assay [4], in assay [5] and in assay [6] was > 100 µM (inactive) each time. Further, the GI50 in [7], in [8], in [9], in assay [10], in assay [11] and in assay [12] was > 100 µM (inactive) in each case. Besides, the GI50 in assay [13], in assay [14], in assay [15], in [16], in assay [17] and in assay [18] was > 100 µM (inactive) in each case.
Consider `CN(C)CCCCN1CCc2c(n(C)c3ccccc23)C1=O`, for which the GI50 in assay [1] is 33.5 µM (inactive); in [2] it was 50.6 µM (inactive); in assay [3], 29.6 µM (inactive); in assay [4], 18.1 µM (inactive); in assay [5], 36 µM (inactive); in assay [6], 51.4 µM (inactive). The GI50 in assay [7] was 57.9 µM (inactive); in [8] it was 26.2 µM (inactive); in [19], 19.4 µM (inactive); in [9] it was 18.4 µM (inactive); in [10], 54.2 µM (inactive); in assay [11], > 67.8 µM (inactive). Besides, the GI50 in assay [13] is > 80.4 µM (inactive); in assay [14] it was 20 µM (inactive); in assay [15], 17.7 µM (inactive); in assay [16], 22.3 µM (inactive); in assay [17], 27.4 µM (inactive); in assay [18], 30.9 µM (inactive).
In the case of `COc1ccc2c(c1)/C(=C/CCN(C)C)c1ccccc1S2`, the GI50 is > 100 µM (inactive) in assay [2]; 18.8 µM (inactive) in [4]; 48.5 µM (inactive) in assay [6]; 46.1 µM (inactive) in [8]; 95.5 µM (inactive) in assay [19]; 73.8 µM (inactive) in [9]. The GI50 in assay [10] is > 100 µM (inactive); in assay [11], > 100 µM (inactive); in assay [13], > 100 µM (inactive); in assay [15], 16.2 µM (inactive); in assay [16] it was 27.5 µM (inactive); in assay [17] it was > 100 µM (inactive). Besides, in assay [18], the GI50 is 27 µM (inactive).
For `CCCCCC/C(CC(=O)CCC(=O)NCCc1ccccc1)=N\NC(=O)c1ccc2ccccc2c1O`, the GI50 in assay [1] was 31.6 µM (inactive); in assay [2] it was 48.2 µM (inactive); in [4], 54.2 µM (inactive); in assay [5], 43.2 µM (inactive); in assay [6] it was 7.78 µM (inactive); in assay [7], 33.7 µM (inactive). In addition, the GI50 in assay [19] is 17.7 µM (inactive); in assay [9] it was 33.3 µM (inactive); in assay [10] it was 31.6 µM (inactive); in [12], 37.8 µM (inactive); in assay [13], 29.4 µM (inactive); in [14] it was 20 µM (inactive). The GI50 in assay [15] is 29.5 µM (inactive); in assay [16], 78.5 µM (inactive); in assay [17], 52.7 µM (inactive); in assay [18], 35.4 µM (inactive).
As for `Cc1ccc(-c2c(C#N)c(-c3ccc([N+](=O)[O-])cc3)c(C#N)c(=O)n2NS(=O)(=O)c2ccccc2)cc1`, the GI50 in assay [1] was 45.3 µM (inactive); in assay [2], 36.6 µM (inactive); in assay [3] it was 97.3 µM (inactive); in assay [4], 53.1 µM (inactive); in [5] it was 40.5 µM (inactive); in assay [7], 30.9 µM (inactive). Moreover, the GI50 in assay [8] is 39.3 µM (inactive); in [19], 25.9 µM (inactive); in assay [9], 32.5 µM (inactive); in assay [11], 26.1 µM (inactive); in assay [12], 28.1 µM (inactive); in assay [13] it was 31.6 µM (inactive). The GI50 was 44 µM (inactive) in assay [14], 12.1 µM (inactive) in assay [15], 28.4 µM (inactive) in assay [16] and 38 µM (inactive) in assay [17].
Regarding `COC(=O)c1c(-c2ccccc2)c2sc3ccccc3n2c1N`, the GI50 in assay [1] is 29.3 µM (inactive); in [2], 29.6 µM (inactive); in [3], 51.3 µM (inactive); in assay [4], 28.2 µM (inactive); in [5] it was 58.3 µM (inactive); in assay [7], 58.6 µM (inactive). Besides, the GI50 in assay [8] was > 100 µM (inactive); in assay [19] it was 17.3 µM (inactive); in assay [9], 76.6 µM (inactive); in assay [10], 72.1 µM (inactive); in [11], > 100 µM (inactive); in assay [12], 56.5 µM (inactive). Also, the GI50 was 58.3 µM (inactive) in [13]; 32.9 µM (inactive) in assay [14]; 59 µM (inactive) in assay [15]; 56.1 µM (inactive) in assay [16]; 85.9 µM (inactive) in [18].
For `C/C(=N\NC(=S)N1CCN(c2ccccn2)CC1)c1cccc(C)n1`, the GI50 in assay [1] is 1.9 µM (inactive); in assay [2], 3.48 µM (inactive); in assay [4] it was < 0.01 µM (active); in assay [6], 0.0115 µM (active); in assay [7], < 0.01 µM (active); in assay [8] it was 0.585 µM (active). Also, the GI50 is 2.15 µM (inactive) in assay [19]; 0.261 µM (active) in assay [9]; 5.58 µM (inactive) in [10]; < 0.01 µM (active) in assay [11]; 2.15 µM (inactive) in assay [14]; 1.53 µM (inactive) in [15]. Further, the GI50 in assay [16] was 3.84 µM (inactive); in [17], < 0.01 µM (active); in assay [18], 9.14 µM (inactive).
Consider `COC(=O)C1=C(C(=O)OC)C(N(C)C)C(C(=O)OC)=C(C(=O)OC)S1`, for which the GI50 in assay [1], in [2], in assay [3], in [4], in assay [8] and in assay [19] was > 100 µM (inactive) each time. The GI50 in assay [9], in [10], in assay [11], in assay [12], in [13] and in assay [14] was > 100 µM (inactive) in each case. For the same compound, the GI50 in [16], in assay [17] and in assay [18] was > 100 µM (inactive) in each case.
For the compound `Cc1ccc2c3c4c(ccc13)C(C)(C)OC4=C(C(C)C)C2=O`, the GI50 in assay [1] is 66.7 µM (inactive); in assay [2], 55.5 µM (inactive); in [3], > 100 µM (inactive); in [4], 31.3 µM (inactive); in [5], 63.5 µM (inactive); in assay [6] it was 16.6 µM (inactive). For the same compound, the GI50 in [7] is 55.3 µM (inactive); in [8], 59.3 µM (inactive); in assay [9] it was 45.1 µM (inactive); in assay [10], 70.5 µM (inactive); in [11] it was 19.5 µM (inactive); in assay [12], 65.5 µM (inactive). Further, the GI50 was 44.7 µM (inactive) in assay [13]; 17 µM (inactive) in [14]; 32.2 µM (inactive) in [15]; 26.4 µM (inactive) in assay [16]; > 100 µM (inactive) in [17]; > 100 µM (inactive) in [18].
